Experiment: Cytotoxicity tests of photoinitiator in polymer system
Format: cell-based
Details: photoinitiator at about 0.01-1 wt % of the polymer system
Description: A UV-Lamp (Model B100AP; Black-Ray) was used to photopolymerize the solutions for 10 minutes at an intensity of 10 mW/cm^2. The mould is slowly but constantly rotated during photopolymerization. After processing of all materials, polymers were heat treated at 90° C. for 1 hour to ensure the complete conversion of monomers. The photoinitiator 2,2-dimethoxy-2-phenylacetephenone was used although a variety of other initiators can also be used. […] Glass transition temperature (Tg) and rubbery modulus can be controlled by, for example, changing the weight percent (wt %) of the crosslinker, for example, PEGDMA (Mn 550) as shown in FIG. 9.

## COC(OC)(C(=O)c1ccccc1)c1ccccc1 [2,2-dimethoxy-2-phenylacetephenone]
  biocompatibility of the polymer (cytotoxicity tests): should not affect the biocompatibility of the polymer

From patent US20090248141A1, “Shape Memory Polymer Medical Devices” (THE REGENTS OF THE UNIVERSITY OF COLORADO, priority 2006, published 2009)
